Measured values: patent US20050004092A1, “Penem derivatives and antimicrobial agent containing the same” (DAIICHI SUNTORY PHARMA CO., LTD., priority 1995, published 2005)
Values after ≈ are worked out from the molar mass of the structure shown.

Columns and labels:
Experiment in all cases: antibacterial activity (MIC), standard in vitro dilution test
[1] = tested on: MRSA 31 high-resist. (IPM resist.); assay type: cell-based, Staphylococcus aureus; conditions: test bacterium strain 10^5 cfu/ml; for MIC: Staphylococcus aureus, MRSA, read-out: MIC, MRSA 31 high-resist. (IPM resist.)
Description: (§1) With respect to certain compounds (I) of the present invention, their general antibacterial activities and their antibacterial activities (MIC) against various methicillin-resistant strains of Staphylococcus aureus (methicillin-resistant Staphylococcus aureus: MRSA) were investigated. The results will be shown next.
(§2) Of the investigations, the general antibacterial activities were investigated by a standard in vitro dilution test.
(§3) As test bacteria, Staphylococcus aureus 209P JC-1, Escherichia coli NIHJ JC-2 and MRSAs were used.

[2] = tested on: MRSA 33 high-resist. (IPM resist.); assay type: cell-based, Staphylococcus aureus; conditions: test bacterium strain 10^5 cfu/ml; for MIC: Staphylococcus aureus, MRSA, read-out: MIC, MRSA 33 high-resist. (IPM resist.)
Description: as §1, §2, §3

[3] = tested on: Escherichia coli NIHJ JC-2 strain; assay type: cell-based; conditions: for MIC: Escherichia coli, NIHJJC2, test bacterium strain 10^5 cfu/ml, read-out: MIC, Escherichia coli NIHJ JC-2 strain; for MIC, Escherichia coli NIHJ JC-2 strain: test bacterium strain 10^5 cfu/ml
Description: as §1, §2, §3

[4] = tested on: Staphylococcus aureus 209P JC-1 strain; assay type: cell-based; conditions: test bacterium strain 10^5 cfu/ml; for MIC: Staphylococcus aureus, 209P, read-out: MIC, Staphylococcus aureus 209P JC-1 strain
Description: as §1, §2, §3

SMILES	MIC [1] [µg/mL]	MIC [2] [µg/mL]	MIC [3] [µg/mL]	MIC [4] [µg/mL]	MIC, MRSA 31 high-resist. (IPM resist.) [1] [µg/mL]	MIC, MRSA 33 high-resist. (IPM resist.) [2] [µg/mL]	MIC, Escherichia coli NIHJ JC-2 strain [3] [µg/mL]	MIC, Staphylococcus aureus 209P JC-1 strain [4] [µg/mL]
CC[C@H](O)[C@@H]1C(=O)N2C(C(=O)O)=C(Sc3ccccc3)S[C@H]12 [Ex. 151, (5R,6R)-6-((S)-1-hydroxypropyl)-2-phenylthiopenem-3-carboxylic acid]	6.25 (≈ 18.5 µM)	6.25 (≈ 18.5 µM)	25 (≈ 74.1 µM)	0.1 (≈ 0.296 µM)				
CC[C@H](O)[C@@H]1C(=O)N2C(C(=O)O)=C(Sc3nc(-c4ccccc4)cs3)S[C@H]12 [Ex. 152, (5R,6R)-6-((S)-1-hydroxypropyl)-2-(4-phenylthiazol-2-yl)thiopenem-3-carboxylic acid]	3.13 (≈ 7.44 µM)	3.13 (≈ 7.44 µM)	50 (≈ 119 µM)	0.05 (≈ 0.119 µM)				
CC[C@H](O)[C@@H]1C(=O)N2C(C(=O)O)=C(S[C@H]3CCN(c4ccncc4)C3)S[C@H]12 [Ex. 203]	3.13 (≈ 7.68 µM)	3.13 (≈ 7.68 µM)	0.78 (≈ 1.91 µM)	0.05 (≈ 0.123 µM)				
CC[C@H](O)[C@@H]1C(=O)N2C(C(=O)O)=C(S[C@H]3CCN(c4ccccn4)C3)S[C@H]12 [Ex. 204]	3.13 (≈ 7.68 µM)	3.13 (≈ 7.68 µM)	6.25 (≈ 15.3 µM)	0.1 (≈ 0.245 µM)				
CC[C@H](O)[C@@H]1C(=O)N2C(C(=O)O)=C(SCc3nc4ccccc4[nH]3)SC12 (some centres unmarked) [Ex. 205]	3.13 (≈ 8 µM)	3.13 (≈ 8 µM)	3.13 (≈ 8 µM)	0.1 (≈ 0.255 µM)				
CC[C@H](O)[C@@H]1C(=O)N2C(C(=O)O)=C(S[C@H]3CCN(CC(=O)c4ccc5c(c4)OCO5)C3)S[C@H]12 [Ex. 207]	6.25 (≈ 12.7 µM)	6.25 (≈ 12.7 µM)	0.39 (≈ 0.792 µM)	0.1 (≈ 0.203 µM)				
CC[C@H](O)[C@@H]1C(=O)N2C(C(=O)O)=C(S[C@H]3CCN(c4ncccn4)C3)S[C@H]12 [Ex. 209]	6.25 (≈ 15.3 µM)	6.25 (≈ 15.3 µM)	25 (≈ 61.2 µM)	0.39 (≈ 0.955 µM)				
CC[C@H](O)[C@@H]1C(=O)N2C(C(=O)O)=C(S[C@H]3CCN(CCOc4ccccc4)C3)S[C@H]12 [Ex. 210]	6.25 (≈ 13.9 µM)	6.25 (≈ 13.9 µM)	12.5 (≈ 27.7 µM)	0.1 (≈ 0.222 µM)				
CC[C@H](O)[C@@H]1C(=O)N2C(C(=O)O)=C(S[C@H]3CCN(C4Cc5ccccc5C4)C3)S[C@H]12 [Ex. 214]	6.25 (≈ 14 µM)	3.13 (≈ 7.01 µM)	6.25 (≈ 14 µM)	0.1 (≈ 0.224 µM)				
CC[C@H](O)[C@@H]1C(=O)N2C(C(=O)O)=C(S[C@H]3CCN(CCCC(=O)c4ccccc4)C3)S[C@H]12 [Ex. 215]	6.25 (≈ 13.1 µM)	6.25 (≈ 13.1 µM)	3.13 (≈ 6.57 µM)	0.1 (≈ 0.21 µM)				
CC[C@H](O)[C@@H]1C(=O)N2C(C(=O)O)=C(SC3CCN(C(=N)NC(=O)c4ccccc4)C3)S[C@H]12 (some centres unmarked) [Ex. 218]	6.25 (≈ 13.1 µM)	6.25 (≈ 13.1 µM)	25 (≈ 52.5 µM)	0.2 (≈ 0.42 µM)				
CC[C@H](O)[C@@H]1C(=O)N2C(C(=O)O)=C(SCc3ccncc3)S[C@H]12 [Ex. 224]	3.13 (≈ 8.88 µM)	3.13 (≈ 8.88 µM)	3.13 (≈ 8.88 µM)	0.2 (≈ 0.567 µM)				
CC[C@H](O)[C@@H]1C(=O)N2C(C(=O)O)=C(SC3Cc4ccccc4C3)S[C@H]12 [Ex. 225]	1.56 (≈ 4.13 µM)	1.56 (≈ 4.13 µM)	12.5 (≈ 33.1 µM)	0.05 (≈ 0.132 µM)				
CC[C@H](O)[C@@H]1C(=O)N2C(C(=O)O)=C(SC3CCN(CC(=O)c4ccccc4C)C3)S[C@H]12 (some centres unmarked) [Ex. 226]	6.25 (≈ 13.5 µM)	6.25 (≈ 13.5 µM)	0.39 (≈ 0.843 µM)	0.2 (≈ 0.432 µM)				
CC[C@H](O)[C@@H]1C(=O)N2C(C(=O)O)=C(SC3CCN(C4CCCC4)C3)S[C@H]12 (some centres unmarked) [Ex. 227]	6.25 (≈ 15.7 µM)	6.25 (≈ 15.7 µM)	0.78 (≈ 1.96 µM)	0.1 (≈ 0.251 µM)				
CC[C@H](O)[C@@H]1C(=O)N2C(C(=O)O)=C(SC3CCN(C/C=C/c4ccccc4)C3)S[C@H]12 (some centres unmarked) [Ex. 228]	3.13 (≈ 7.01 µM)	3.13 (≈ 7.01 µM)	12.5 (≈ 28 µM)	0.05 (≈ 0.112 µM)				
CC[C@H](O)[C@@H]1C(=O)N2C(C(=O)O)=C(S[C@H]3CCN(c4nccs4)C3)S[C@H]12 [Ex. 229]	3.13 (≈ 7.57 µM)	3.13 (≈ 7.57 µM)	12.5 (≈ 30.2 µM)	0.1 (≈ 0.242 µM)				
CC[C@H](O)[C@@H]1C(=O)N2C(C(=O)O)=C(S[C@H]3CCN(CC4CC4)C3)S[C@H]12 [Ex. 230]	6.25 (≈ 16.3 µM)	6.25 (≈ 16.3 µM)	0.78 (≈ 2.03 µM)	0.2 (≈ 0.52 µM)				
CC[C@H](O)[C@@H]1C(=O)N2C(C(=O)O)=C(SC3CCc4cccnc43)S[C@H]12 (some centres unmarked) [Ex. 231]				0.1 (≈ 0.264 µM)	1.56 (≈ 4.12 µM)	1.56 (≈ 4.12 µM)	3.13 (≈ 8.27 µM)	
CC[C@H](O)[C@@H]1C(=O)N2C(C(=O)O)=C(SC3CCc4cccnc43)S[C@H]12 (some centres unmarked) [Ex. 232]					3.13 (≈ 8.27 µM)	3.13 (≈ 8.27 µM)	12.5 (≈ 33 µM)	0.05 (≈ 0.132 µM)
CC[C@H](O)[C@@H]1C(=O)N2C(C(=O)O)=C(SC3CCN(C4CC4)C3)S[C@H]12 (some centres unmarked) [Ex. 235]	6.25 (≈ 16.9 µM)	6.25 (≈ 16.9 µM)	0.78 (≈ 2.11 µM)	0.1 (≈ 0.27 µM)				
CC[C@H](O)[C@@H]1C(=O)N2C(C(=O)O)=C(SCc3ccc(Cl)c(Cl)c3)S[C@H]12 [Ex. 236]	1.56 (≈ 3.71 µM)	1.56 (≈ 3.71 µM)	50 (≈ 119 µM)	0.1 (≈ 0.238 µM)				
CC[C@H](O)[C@@H]1C(=O)N2C(C(=O)O)=C(SCc3ccc(C#N)cc3)S[C@H]12 [Ex. 239]	0.78 (≈ 2.07 µM)	1.56 (≈ 4.14 µM)	12.5 (≈ 33.2 µM)	0.1 (≈ 0.266 µM)				
CC[C@H](O)[C@@H]1C(=O)N2C(C(=O)O)=C(S[C@H]3CCN(C(=N)Nc4ccccc4)C3)S[C@H]12 [Ex. 243]	6.25 (≈ 13.9 µM)	6.25 (≈ 13.9 µM)	1.56 (≈ 3.48 µM)	0.2 (≈ 0.446 µM)				
CCC(=N)N1CC[C@H](SC2=C(C(=O)O)N3C(=O)[C@@H]([C@@H](O)CC)[C@H]3S2)C1 [Ex. 250]	6.25 (≈ 16.2 µM)	6.25 (≈ 16.2 µM)	1.56 (≈ 4.05 µM)	0.2 (≈ 0.519 µM)				
CC[C@H](O)[C@@H]1C(=O)N2C(C(=O)O)=C(S[C@H]3CCN(C(=N)CF)C3)S[C@H]12 [Ex. 253]	6.25 (≈ 16 µM)	6.25 (≈ 16 µM)	0.78 (≈ 2 µM)	0.1 (≈ 0.257 µM)				
CC[C@H](O)[C@@H]1C(=O)N2C(C(=O)O)=C(SC3CN(C=N)C3)S[C@H]12 [Ex. 254]	6.25 (≈ 18.2 µM)	6.25 (≈ 18.2 µM)	0.78 (≈ 2.27 µM)	0.1 (≈ 0.291 µM)				
CC[C@H](O)[C@@H]1C(=O)N2C(C(=O)O)=C(SC3CN(C(C)=N)C3)S[C@H]12 [Ex. 255]	3.13 (≈ 8.76 µM)	3.13 (≈ 8.76 µM)	0.78 (≈ 2.18 µM)	0.1 (≈ 0.28 µM)				
CC[C@H](O)[C@@H]1C(=O)N2C(C(=O)O)=C(S[C@H]3CCN(c4ccc(NC(C)=N)cc4)C3)S[C@H]12 [Ex. 257]	3.13 (≈ 6.77 µM)	1.56 (≈ 3.37 µM)	12.5 (≈ 27 µM)	0.05 (≈ 0.108 µM)				
